# Measured values: ChEMBL document CHEMBL6153037, “Developing dual-responsive quinolinium prodrugs of 8-hydroxyquinoline by harnessing the dual chelating sites” (Eur J Med Chem, 2025)
# Key:
# MDA-MB-231 [1] = experiment: Cytotoxicity against human MDA-MB-231 cells incubated for 12 hrs by MTT assay; format: functional, cell-based; details: MDA-MB-231, 12 h
# MDA-MB-231 [2] = experiment: Cytotoxicity against human MDA-MB-231 cells assessed as decrease in cell viability at 5 uM incubated for 48 hrs by MTT assay relative to control; format: functional
# MDA-MB-231 [3] = experiment: Cytotoxicity against human MDA-MB-231 cells in presence of Cu2+ by MTT assay; format: functional, cell-based
# A549 = experiment: Cytotoxicity against human A549 cells in presence of Cu2+ by MTT assay; format: functional, cell-based
smiles,measurement,setting,value
O=C(CCc1ccc(O)cc1)c1c(O)cc(O)cc1O[C@@H]1O[C@H](CO)[C@@H](O)[C@H](O)[C@H]1O [PHLORIZIN],IC50,MDA-MB-231 [1],26.2 µM
Br.[N-]=[N+]=Nc1ccc(C[n+]2cccc3cccc(O)c32)cc1,Activity,MDA-MB-231 [2],<25%
OC[C@H]1O[C@@H](Oc2cccc3cccnc23)[C@H](O)[C@@H](O)[C@@H]1O,IC50,MDA-MB-231 [3],5.56 µM
same,IC50,A549,5.56 µM
